Test results: ChEMBL document CHEMBL4145442, “Novel LCK/FMS inhibitors based on phenoxypyrimidine scaffold as potential treatment for inflammatory disorders” (Eur J Med Chem, 2017)
pIC50: −log10 of the molar value. Calls of active or inactive are those of the source. The calls are words filed in the database; no cut-off is given here.

Assays:
[1] = molecular target: T1, Tyrosine-protein kinase Lck (Homo sapiens, UniProt P06239); test: Inhibition of LCK (unknown origin) after 120 mins in presence of 33P-ATP
Target sequence in this assay (P06239 whole entry): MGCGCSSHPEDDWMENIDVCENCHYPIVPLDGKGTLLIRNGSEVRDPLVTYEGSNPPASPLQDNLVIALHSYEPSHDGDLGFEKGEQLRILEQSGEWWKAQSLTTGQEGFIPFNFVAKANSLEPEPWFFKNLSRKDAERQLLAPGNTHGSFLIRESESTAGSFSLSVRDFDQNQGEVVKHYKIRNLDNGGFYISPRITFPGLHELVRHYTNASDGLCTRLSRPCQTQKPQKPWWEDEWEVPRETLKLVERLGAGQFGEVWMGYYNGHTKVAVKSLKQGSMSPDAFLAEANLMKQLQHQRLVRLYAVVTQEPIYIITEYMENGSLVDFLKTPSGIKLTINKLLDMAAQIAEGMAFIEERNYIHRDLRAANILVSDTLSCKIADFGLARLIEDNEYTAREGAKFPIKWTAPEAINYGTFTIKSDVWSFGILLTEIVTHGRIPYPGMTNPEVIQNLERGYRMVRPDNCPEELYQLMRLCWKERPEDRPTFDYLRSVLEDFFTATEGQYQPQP

[2] = molecular target: T1, Tyrosine-protein kinase Lck; test: Inhibition of LCK (unknown origin) assessed as remaining activity at 3 x 10^-5 M after 120 mins in presence of 33P-ATP (reference value: […]% to […]%); settings: at 30 µM
Target sequence in this assay (P06239 2-509 limits assumed): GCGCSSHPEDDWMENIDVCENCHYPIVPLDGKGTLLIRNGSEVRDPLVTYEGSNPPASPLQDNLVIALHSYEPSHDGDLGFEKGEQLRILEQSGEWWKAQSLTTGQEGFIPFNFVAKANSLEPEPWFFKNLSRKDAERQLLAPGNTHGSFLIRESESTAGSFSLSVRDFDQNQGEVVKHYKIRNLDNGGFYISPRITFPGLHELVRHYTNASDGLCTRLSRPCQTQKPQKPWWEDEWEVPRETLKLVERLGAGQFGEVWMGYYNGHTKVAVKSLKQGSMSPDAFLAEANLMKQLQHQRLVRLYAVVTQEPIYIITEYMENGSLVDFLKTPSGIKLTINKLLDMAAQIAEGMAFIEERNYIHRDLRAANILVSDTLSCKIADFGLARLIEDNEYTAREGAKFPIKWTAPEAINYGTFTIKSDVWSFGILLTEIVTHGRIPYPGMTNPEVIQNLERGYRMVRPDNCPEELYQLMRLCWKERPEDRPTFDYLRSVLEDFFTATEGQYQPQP

[3] = molecular target: T1, Tyrosine-protein kinase Lck; test: Inhibition of LCK (unknown origin) assessed as remaining activity at 1 x 10^-5 M after 120 mins in presence of 33P-ATP (reference value: […]% to […]%); settings: at 10 µM
Target sequence in this assay (P06239 2-509 limits assumed): as above

[4] = molecular target: T1, Tyrosine-protein kinase Lck; test: Inhibition of LCK (unknown origin) assessed as remaining activity at 3.33 x 10^-6 M after 120 mins in presence of 33P-ATP (reference value: […]% to […]%); settings: at 3.33 µM
Target sequence in this assay (P06239 2-509 limits assumed): as above

[5] = molecular target: T1, Tyrosine-protein kinase Lck; test: Inhibition of LCK (unknown origin) assessed as remaining activity at […] x 10^-6 M after 120 mins in presence of 33P-ATP (reference value: […]% to […]%)
Target sequence in this assay (P06239 2-509 limits assumed): as above

[6] = molecular target: T1, Tyrosine-protein kinase Lck; test: Inhibition of LCK (unknown origin) assessed as remaining activity at 3.7 x 10^-7 M after 120 mins in presence of 33P-ATP (reference value: […]% to […]%); settings: at 0.37 µM
Target sequence in this assay (P06239 2-509 limits assumed): as above

[7] = (§1) Cytotoxicity against mouse RAW264.7 cells after 4 hrs by MTT assay; type: cell-based; settings: mouse, RAW264.7 cells
[8] = system: RAW264.7; test: Inhibition of LPS-induced NO production in mouse RAW264.7 cells after 24 hrs by Griess assay; type: functional, cell-based; settings: RAW264.7, 24 h
[9] = molecular target: Macrophage colony-stimulating factor 1 receptor (Homo sapiens, UniProt P07333); test: Inhibition of FMS (unknown origin) after 120 mins in presence of 33P-ATP
[10] = system: RAW264.7; test: Antiinflammatory activity in mouse RAW264.7 cells assessed as inhibition of LPS-induced PGE2 production after 24 hrs by enzyme immunoassay; type: functional, cell-based; settings: RAW264.7, 24 h
[11] = molecular target: Homeodomain-interacting protein kinase 1 (Homo sapiens, UniProt Q86Z02); test: Inhibition of HIPK1 (unknown origin)
[12] = system: RAW264.7; test: Potency index, ratio of L-NIL IC50 to compound IC50 for inhibition of LPS-induced NO production in mouse RAW264.7 cells; type: functional
[13] = system: RAW264.7; test: Antiinflammatory activity against mouse RAW264.7 cells assessed as inhibition of LPS induced COX-2 protein expression at 3 to 12 uM after 24 hrs by Western blot analysis; type: functional, cell-based
[14] = system: RAW264.7; test: Antiinflammatory activity against mouse RAW264.7 cells assessed as inhibition of LPS-induced iNOS protein expression at 3 to 12 uM after 24 hrs by Western blot analysis; type: functional, cell-based
[15] = system: RAW264.7; test: as §1; type: cell-based; settings: Mus musculus, RAW264.7, 4 h
[16] = molecular target: Tyrosine-protein kinase Lyn (Homo sapiens, UniProt P07948)
Description: Inhibition of LYN (unknown origin)

[17] = molecular target: High affinity nerve growth factor receptor (Homo sapiens, UniProt P04629)
Sequence of High affinity nerve growth factor receptor (P04629 whole entry): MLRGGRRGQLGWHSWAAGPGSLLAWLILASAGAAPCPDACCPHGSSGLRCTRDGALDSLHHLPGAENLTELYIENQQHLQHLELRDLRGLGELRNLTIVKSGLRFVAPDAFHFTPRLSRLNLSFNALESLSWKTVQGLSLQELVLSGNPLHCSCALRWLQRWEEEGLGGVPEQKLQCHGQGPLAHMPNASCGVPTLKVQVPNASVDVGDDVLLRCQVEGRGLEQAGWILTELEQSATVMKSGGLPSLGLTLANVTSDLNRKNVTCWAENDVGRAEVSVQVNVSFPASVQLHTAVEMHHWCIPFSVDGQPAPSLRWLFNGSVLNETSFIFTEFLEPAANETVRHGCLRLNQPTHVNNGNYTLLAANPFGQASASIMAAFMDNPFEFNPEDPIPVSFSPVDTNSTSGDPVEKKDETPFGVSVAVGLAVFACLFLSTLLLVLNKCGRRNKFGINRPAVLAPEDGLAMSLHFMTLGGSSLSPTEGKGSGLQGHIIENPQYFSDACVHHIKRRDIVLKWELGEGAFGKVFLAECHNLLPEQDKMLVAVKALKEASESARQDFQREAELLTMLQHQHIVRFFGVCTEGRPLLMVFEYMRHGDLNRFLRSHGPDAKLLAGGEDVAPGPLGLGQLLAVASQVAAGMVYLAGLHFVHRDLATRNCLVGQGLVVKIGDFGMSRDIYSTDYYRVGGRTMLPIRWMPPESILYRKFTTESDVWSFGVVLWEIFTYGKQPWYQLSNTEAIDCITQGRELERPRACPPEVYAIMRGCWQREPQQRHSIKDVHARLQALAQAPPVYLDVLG
Description: Inhibition of TRKA (unknown origin)

Sequence of Macrophage colony-stimulating factor 1 receptor (P07333 whole entry): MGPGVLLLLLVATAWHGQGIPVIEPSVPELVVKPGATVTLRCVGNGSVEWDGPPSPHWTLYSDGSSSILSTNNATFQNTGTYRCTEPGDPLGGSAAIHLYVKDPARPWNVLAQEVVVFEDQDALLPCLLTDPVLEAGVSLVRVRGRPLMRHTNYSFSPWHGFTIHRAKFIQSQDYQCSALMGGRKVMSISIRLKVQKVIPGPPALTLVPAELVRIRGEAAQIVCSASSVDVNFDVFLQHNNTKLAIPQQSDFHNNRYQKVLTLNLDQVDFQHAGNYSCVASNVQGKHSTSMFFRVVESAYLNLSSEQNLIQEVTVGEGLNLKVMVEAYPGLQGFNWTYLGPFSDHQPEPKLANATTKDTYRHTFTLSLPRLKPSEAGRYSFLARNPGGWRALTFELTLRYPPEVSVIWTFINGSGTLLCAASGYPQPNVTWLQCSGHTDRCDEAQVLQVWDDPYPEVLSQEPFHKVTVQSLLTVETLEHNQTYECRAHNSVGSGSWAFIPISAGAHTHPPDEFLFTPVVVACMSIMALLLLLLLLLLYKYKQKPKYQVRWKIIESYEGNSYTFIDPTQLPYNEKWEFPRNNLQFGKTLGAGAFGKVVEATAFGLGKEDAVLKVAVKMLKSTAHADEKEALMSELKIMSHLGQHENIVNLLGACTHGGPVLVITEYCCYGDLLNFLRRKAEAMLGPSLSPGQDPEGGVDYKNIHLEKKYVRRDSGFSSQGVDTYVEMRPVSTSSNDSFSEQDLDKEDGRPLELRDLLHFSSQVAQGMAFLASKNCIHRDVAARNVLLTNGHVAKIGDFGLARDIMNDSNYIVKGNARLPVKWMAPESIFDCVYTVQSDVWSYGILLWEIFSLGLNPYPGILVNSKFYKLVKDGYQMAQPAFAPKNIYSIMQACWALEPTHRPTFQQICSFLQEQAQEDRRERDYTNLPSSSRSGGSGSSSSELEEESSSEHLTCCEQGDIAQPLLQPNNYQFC
Sequence of Tyrosine-protein kinase Lyn (P07948 whole entry): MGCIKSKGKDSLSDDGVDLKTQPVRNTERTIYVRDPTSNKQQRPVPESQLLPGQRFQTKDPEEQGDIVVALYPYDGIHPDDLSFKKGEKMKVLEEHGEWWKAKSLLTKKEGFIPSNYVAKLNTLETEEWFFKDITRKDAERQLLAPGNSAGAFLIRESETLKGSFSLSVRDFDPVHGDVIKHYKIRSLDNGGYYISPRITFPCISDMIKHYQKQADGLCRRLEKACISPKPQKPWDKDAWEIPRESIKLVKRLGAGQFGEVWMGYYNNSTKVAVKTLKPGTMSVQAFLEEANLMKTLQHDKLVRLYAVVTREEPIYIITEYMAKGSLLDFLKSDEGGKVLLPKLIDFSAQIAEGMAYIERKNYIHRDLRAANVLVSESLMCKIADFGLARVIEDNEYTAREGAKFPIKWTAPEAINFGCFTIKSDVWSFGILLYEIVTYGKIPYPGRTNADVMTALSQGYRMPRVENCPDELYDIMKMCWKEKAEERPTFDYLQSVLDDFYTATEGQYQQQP
Sequence of Homeodomain-interacting protein kinase 1 (Q86Z02 whole entry): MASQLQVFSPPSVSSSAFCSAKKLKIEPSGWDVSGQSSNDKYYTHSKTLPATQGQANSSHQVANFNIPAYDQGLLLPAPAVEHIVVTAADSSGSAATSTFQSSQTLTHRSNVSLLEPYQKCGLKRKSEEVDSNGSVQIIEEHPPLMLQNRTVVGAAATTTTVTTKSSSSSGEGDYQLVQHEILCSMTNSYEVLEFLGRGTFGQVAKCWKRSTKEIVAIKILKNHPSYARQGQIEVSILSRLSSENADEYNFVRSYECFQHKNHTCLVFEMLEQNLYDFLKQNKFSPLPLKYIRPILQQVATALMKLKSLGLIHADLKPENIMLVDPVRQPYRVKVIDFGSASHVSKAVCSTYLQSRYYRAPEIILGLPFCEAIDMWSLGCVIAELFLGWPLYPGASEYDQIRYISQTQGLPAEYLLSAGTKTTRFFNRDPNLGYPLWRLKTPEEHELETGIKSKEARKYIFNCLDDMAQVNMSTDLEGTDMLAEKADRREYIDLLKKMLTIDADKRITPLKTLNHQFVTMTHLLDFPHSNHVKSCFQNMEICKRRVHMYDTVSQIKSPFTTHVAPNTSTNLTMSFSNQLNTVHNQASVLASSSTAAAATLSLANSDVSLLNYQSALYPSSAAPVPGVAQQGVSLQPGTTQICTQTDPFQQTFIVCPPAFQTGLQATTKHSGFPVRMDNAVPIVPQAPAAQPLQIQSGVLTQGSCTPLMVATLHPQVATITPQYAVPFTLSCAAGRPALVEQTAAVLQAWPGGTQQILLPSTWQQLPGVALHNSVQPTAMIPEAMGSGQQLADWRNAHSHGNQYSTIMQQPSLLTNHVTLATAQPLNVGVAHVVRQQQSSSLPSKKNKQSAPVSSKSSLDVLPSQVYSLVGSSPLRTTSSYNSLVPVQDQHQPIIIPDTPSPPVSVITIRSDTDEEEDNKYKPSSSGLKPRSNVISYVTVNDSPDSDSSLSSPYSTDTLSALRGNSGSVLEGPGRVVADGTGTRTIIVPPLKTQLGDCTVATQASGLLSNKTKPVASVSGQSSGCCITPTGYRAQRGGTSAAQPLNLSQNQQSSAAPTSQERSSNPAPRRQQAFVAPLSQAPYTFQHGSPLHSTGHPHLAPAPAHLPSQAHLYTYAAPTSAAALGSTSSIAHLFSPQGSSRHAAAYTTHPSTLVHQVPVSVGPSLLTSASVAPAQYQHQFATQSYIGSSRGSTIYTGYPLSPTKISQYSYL

SMILES	pIC50 [1]	Activity [2] [%]	Activity [3] [%]	Activity [4] [%]	Activity [5] [%]	Activity [6] [%]	IC80 at 4 h [7] [nM]	pIC50 [8]	pIC50 [9]	pIC50 [10]	pIC50 [11]	Ratio IC50 [12]	inhibition [13]	inhibition [14]	pIC50 [15]	pIC50 [16]	pIC50 [17]
COc1cc(C)ccc1Oc1nc(Nc2ccc(N3CCOCC3)cc2)ncc1/N=C/c1cc(C(F)(F)F)cc(C(F)(F)F)c1	8.22	24.1 to 28.5	55.5 to 56.8	24.7 to 27.4	19.2 to 20.1	39.7 to 40.7	–	–	–	–	–	–	–	–	–	–	–
COc1cc(C)ccc1Oc1nc(Nc2ccc(N3CCOCC3)cc2)ncc1/N=C/c1cccc(OC(C)C)c1	7.41	12.4 to 16.2	19.8 to 20.8	20 to 24.3	27.6 to 29.2	37.5 to 37.9	> 6000	< 5.30	–	–	–	–	–	–	–	–	–
COc1cc(/C=N/c2cnc(Nc3ccc(N4CCOCC4)cc3)nc2Oc2ccc(C(F)(F)F)cc2)cc(OC)c1	4.92	49.4 to 59.3	43.8 to 52.2	58.4 to 60	61.8 to 72.5	83.1 to 91.7	–	–	7.85	–	–	–	–	–	–	–	–
COc1cc(NC(=O)Nc2cnc(Nc3cc(OC)cc(OC)c3)nc2Oc2ccc(C)cc2OC)cc(OC)c1	4.38	60.4 to 61.1	77.3 to 82	90.1 to 95.8	101 to 106	103 to 108	–	–	–	–	–	–	–	–	–	–	–
COc1ccc(NC(=O)Nc2cnc(Nc3cc(OC)cc(OC)c3)nc2Oc2ccc(C)cc2OC)cc1	< 4.00	90.7 to 95.4	92.4 to 97.2	96.5 to 99.7	98 to 102	96.3 to 102	–	–	–	–	–	–	–	–	–	–	–
COc1cc(NC(=O)Nc2cnc(Nc3ccc(N4CCOCC4)cc3)nc2Oc2ccc(F)cc2)cc(OC)c1	4.15	52.5 to 61.6	68.9 to 70.1	77.8 to 81.3	84 to 87.5	83.2 to 90.3	–	–	–	–	–	–	–	–	–	–	–
COc1cc(NC(=O)Nc2cnc(Nc3ccc(N4CCOCC4)cc3)nc2Oc2ccc(C(F)(F)F)cc2)cc(OC)c1	< 4.00	74.2 to 74.8	78.1 to 84.5	83.8 to 90.7	89.3 to 89.9	96 to 100	–	–	–	–	–	–	–	–	–	–	–
COc1cc(NC(=O)Nc2cnc(Nc3ccc(N4CCOCC4)cc3)nc2Oc2cccc(OC)c2)cc(OC)c1	5.10	62.1 to 63.2	42.1 to 49.3	57.6 to 66.5	64.7 to 71	78.7 to 86.2	–	–	–	–	–	–	–	–	–	–	–
COc1cc(C)ccc1Oc1nc(Nc2ccc(N3CCOCC3)cc2)ncc1NCc1cccc(OC(F)(F)F)c1	4.65	44.9 to 45.8	61.3 to 65.9	68.8 to 76.6	83.5 to 91.3	92.7 to 92.9	–	–	–	–	–	–	–	–	–	–	–
COc1cc(C)ccc1Oc1nc(Nc2ccc(N3CCOCC3)cc2)ncc1NCc1cc(C(F)(F)F)cc(C(F)(F)F)c1	4.94	41.1 to 41.7	55.1 to 58.1	66.6 to 71	88.1 to 91.2	104	–	–	–	–	–	–	–	–	–	–	–
CS(=O)(=O)Nc1ccc([N+](=O)[O-])cc1OC1CCCCC1 [NS-398]	–	–	–	–	–	–	–	–	–	8.14	–	–	–	–	–	–	–
COc1cc(C)ccc1Oc1nc(Nc2ccc(N3CCOCC3)cc2)ncc1/N=C/c1cc(Cl)cc(Cl)c1	8.19	38.9 to 40.7	37.1	32.8 to 33.6	26.7 to 26.9	35.8 to 36.1	987	< 6.00	–	–	–	–	–	–	–	–	–
COc1cc(C)ccc1Oc1nc(Nc2ccc(N3CCOCC3)cc2)ncc1NCc1ccc(Cl)cc1	6.51	2.49 to 2.9	7.08 to 7.66	11.2 to 11.3	20 to 20.2	43.1 to 46.1	–	–	–	–	–	–	–	–	–	–	–
COc1cc(C)ccc1Oc1nc(Nc2ccc(N3CCOCC3)cc2)ncc1NC(=O)Nc1cc(C(F)(F)F)cc(C(F)(F)F)c1	< 4.00	83.5 to 89.8	89.7 to 95.1	91 to 91.3	96 to 98	95.3 to 99.2	–	–	–	–	–	–	–	–	–	–	–
Cn1cc(C2=C(c3cn(CCCSC(=N)N)c4ccccc34)C(=O)NC2=O)c2ccccc21	–	–	–	–	–	–	–	–	–	–	9.44	–	–	–	–	–	–
COc1ccccc1NC(=O)Nc1cnc(Nc2ccc(N3CCOCC3)cc2)nc1Oc1ccc(C)cc1OC	5.26	35.9 to 36.2	33.8 to 33.9	54.2 to 56	82.2 to 82.9	97.2 to 97.4	–	–	–	–	–	–	–	–	–	–	–
COc1cc(C)ccc1Oc1nc(Nc2ccc(N3CCOCC3)cc2)ncc1NC(=O)Nc1c(Cl)cccc1Cl	4.76	34.8 to 38.1	58.3 to 62.7	75.6 to 81.8	86.8 to 89.4	93.2 to 97.7	–	–	–	–	–	–	–	–	–	–	–

SMILES	pIC50 [1]	Activity [2] [%]	Activity [3] [%]	Activity [4] [%]	Activity [5] [%]	Activity [6] [%]	IC80 at 4 h [7] [nM]	pIC50 [8]	pIC50 [9]	pIC50 [10]	pIC50 [11]	Ratio IC50 [12]	inhibition [13]	inhibition [14]	pIC50 [15]	pIC50 [16]	pIC50 [17]
COc1cc(C)ccc1Oc1nc(Nc2ccc(N3CCOCC3)cc2)ncc1/N=C/c1cccc(Cl)c1	7.21	28.6 to 36.9	11.3 to 14.9	15.3 to 16.8	19.6 to 23.2	32.6 to 35.6	> 1000	< 6.00	–	–	–	–	–	–	–	–	–
COc1cc(C)ccc1Oc1nc(Nc2ccc(N3CCOCC3)cc2)ncc1/N=C/c1ccccc1Cl	6.65	6.29 to 7.37	11.3 to 11.5	13.4 to 15.1	26.9 to 29.3	42.5 to 42.8	> 1000	< 6.00	–	–	–	–	–	–	–	–	–
COc1cc(OC)cc(C(=O)Nc2cnc(Nc3ccc(N4CCOCC4)cc3)nc2Oc2ccc(C)cc2OC)c1	4.99	39 to 39.6	46.5 to 47	67.3 to 72.8	86.7 to 89	99.1 to 99.3	–	–	–	–	–	–	–	–	–	–	–
COc1cc(/C=N/c2cnc(Nc3ccc(N4CCOCC4)cc3)nc2Oc2ccc(F)cc2)cc(OC)c1	5.50	65.3 to 69.2	39.9 to 41	42.7 to 47.8	62.5 to 64.3	76.7 to 83.1	–	–	7.68	–	–	–	–	–	–	–	–
COc1cc(C)ccc1Oc1nc(Nc2ccc(N3CCOCC3)cc2)ncc1NCc1ccc(OC(F)(F)F)cc1	5.48	21.3 to 22.5	43.7 to 45.1	45 to 47.1	59.5 to 61.6	84.9 to 85.4	–	–	–	–	–	–	–	–	–	–	–
COc1ccc(OC)c(/C=N/c2cnc(Nc3ccc(N4CCOCC4)cc3)nc2Oc2ccc(C)cc2OC)c1	6.96	8.37 to 10.1	12.5 to 14.4	12.8 to 13.1	19.9 to 21.8	38.7 to 38.9	> 1000	< 6.00	–	–	–	–	–	–	–	–	–
COc1cc(C)ccc1Oc1nc(Nc2ccc(N3CCOCC3)cc2)ncc1/N=C/c1ccc(Cl)cc1	7.27	16.8	10.6	14.7	19.1	38.2	> 6000	< 5.30	–	–	–	–	–	–	–	–	–
COc1cc(C)ccc1Oc1nc(Nc2ccc(N3CCOCC3)cc2)ncc1NC(=O)Nc1cc(Cl)cc(Cl)c1	< 4.00	65.4 to 70	70.1 to 74.8	80.2 to 80.7	90.9 to 97.7	98.6 to 101	–	–	–	–	–	–	–	–	–	–	–
COc1cc(/C=N/c2cnc(Nc3ccc(N4CCOCC4)cc3)nc2Oc2ccc(C)cc2OC)cc(OC)c1	6.97	4.38 to 7.22	7.1 to 8.37	10.3 to 12.6	21.3 to 26.9	28.8 to 37.5	> 1000	< 6.00	6.05	–	–	–	–	–	–	–	–
COc1cc(C)ccc1Oc1nc(Nc2ccc(N3CCOCC3)cc2)ncc1/N=C/c1cccc(OC(F)(F)F)c1	7.47	41.7 to 50.1	49 to 54.7	41.1 to 43.7	26.8 to 27.9	39.2 to 39.8	< 5000	< 4.70	–	–	–	–	–	–	–	–	–
COc1cc(Nc2ncc(NC(=O)Nc3c(Cl)cccc3Cl)c(Oc3ccc(C)cc3OC)n2)cc(OC)c1	4.23	61.5 to 61.7	72.6 to 81.8	85.2 to 88.2	94 to 95.5	93.7 to 96	–	–	–	–	–	–	–	–	–	–	–
C/C(=N/N)NCCCC[C@H](N)C(=O)O	–	–	–	–	–	–	–	4.55	–	–	–	–	–	–	–	–	–
COc1ccc(Oc2nc(Nc3ccc(N4CCOCC4)cc3)ncc2/N=C/c2cc(OC)cc(OC)c2)cc1	7.66	44.8 to 48.5	27.4 to 28.3	30.3 to 32.9	37.8 to 39.9	53.2	> 12000	4.99	8.34	5.28	–	>2.5	inactive	Active	–	–	–
COc1cc(/C=N/c2cnc(Nc3ccc(N4CCOCC4)cc3)nc2Oc2cccc(OC)c2)cc(OC)c1	5.73	24 to 26.5	25.4 to 28.1	34.8 to 36.1	52.6 to 55.2	74.3 to 74.7	–	–	8.07	–	–	–	–	–	–	–	–
COc1cc(Nc2ncc(NC(=O)c3cc(OC)cc(OC)c3)c(Oc3ccc(C)cc3OC)n2)cc(OC)c1	< 4.00	92.3 to 96.8	95.7 to 97.5	100 to 101	99.6 to 102	98.3 to 103	–	–	–	–	–	–	–	–	–	–	–
COc1cc(NC(=O)Nc2cnc(Nc3ccc(N4CCOCC4)cc3)nc2Oc2ccc(C)cc2OC)cc(OC)c1	6.30	–	–	–	–	–	–	< 4.10	–	–	–	–	–	–	< 4.10	5.38	5.07
